According to patent publication US20160106868A1, “OXYGEN FREE RADICAL DETECTION” (Progenitec Inc., priority 2014, published 2016):

How the values were obtained:
[1] = test system: mouse peritoneal PMNs; experiment: ROS chemiluminescence of PMA-activated PMNs, L-012 vs. luminol; format: cell-based; conditions: 1×10^6 PMNs, 2 mM probe; for chemiluminescence emission with PMA activation: PMA (6.5 nM)
Procedure: The ROS measurements were initiated by adding 10 μl of PMA (6.5 nM) at room temperature. Chemiluminescence images 410, 420 were captured with a 5 minute acquisition time using a Kodak In Vivo FX Pro system (f/stop, 2.5; no optical filter, 4×4 binning).

[2] = test system: isolated neutrophils (PMNs); experiment: detection of ROS generated by isolated PMA-activated neutrophils with nanoprobes; format: cell-based; conditions: 5 mM Tempol; fluorescence signal remained constant
Procedure: A number of PMN (5×10^4 to 1×10^6) were incubated in 0.25 ml of 0.9% NaCl solution containing 10 mM phosphate buffer (pH 7.4), 6 mM KCl, and 6 mM MgCl2 in the presence of the nanoprobes (10 μl, 0.5 mg/ml). After incubation of the mixture for 3 min at 37° C., the reaction were initiated by adding 6 nM phorbol 12-myristate 13-acetate (PMA). During the incubation, chemiluminescence and fluorescence intensities were recorded continuously for 60 minutes using a microplate reader.
To verify whether the chemiluminescence signals resulted from ROS generated by activated PMNs, similar PMN-mediated chemiluminescence measurements were carried out in the presence or absence of Tempol, a superoxide dismutase mimetic/ROS neutralizer.

[3] = test system: hypertension-suffering eye; experiment: in vivo oxidative stress imaging of mouse eyes; conditions: L-012 10 μL, 15 mg/mL topically on eyes
Procedure: Referring now to FIG. 5, subsequent studies were carried out to evaluate the feasibility of L-012 for in vivo oxidative stress imaging. L-012 (10 μL, 15 mg/mL) was topically dropped on a mouse's eyes with hypertension-suffering left eye 510 or control right eye 520. The animal was sedated and then imaged with a Kodak in vivo FX imaging system, resulting in image 500. A strong bioluminescence signal was found in the hypertension-suffering left eye 510, while control right eye 520 emitted low or no chemiluminescence.

Compound	chemiluminescence emission with PMA activation [1]	PMN-mediated chemiluminescence intensity in the presence of Tempol [2]	chemiluminescence signal intensity relative to luminol ([1]; PMA activation, 5 minute acquisition)	signal enhancement in hypertension-suffering eye vs control eye [3]
1,4-phthalazinedione, 5-amino-2,3-dihydro [luminol]	emitted chemiluminescence			
CC1(C)CC(O)CC(C)(C)N1[O] [Tempol]		substantially reduced		
Nc1c(-c2ccccc2)nc(Cl)c2c(=O)[nH][nH]c(=O)c12 [L-012, 8-amino-5-chloro-7-phenylpyridol[3,4-d]pyridazine-1,4 (2H,3H)dione]	emitted chemiluminescence		approximately 1000 fold	ten-fold
